According to patent publication US11542290B2 (priority 2018, dated 2023):
Where “and” joins values, the source holds several entries; their conditions need not be identical. Equal values may be shown once. Read-outs that look alike come from different tables or passages of the source. Each block holds one compound with its values, some of them ahead of it.

Key:
in vitro = settings: human
P-gp (MDR1) = test: in vitro; settings: dog
rps29−/− embryos = settings: in vivo, cited from earlier work
[1] = system: CD34+ hematopoietic stem and progenitor cells with rps19 knockdown; settings: cited from earlier work
Caco-2 cells [2] = settings: cited from earlier work
[3] = system: embryos of Rps29 heterozygote fish; test: Zebra fish assay (tail mutation and anemia classification, o-dianisidine staining)
Caco-2 cells [4] = system: Caco-2 cells
[5] = antipsychotic potency; cited from earlier work
[6] = in vivo; cited from earlier work
DBA murine model = settings: injection; cited from earlier work
[7] = target: p70 ribosomal S6 kinase (p70S6K) (Homo sapiens (Human), UniProt P23443); settings: profiling of over 100 kinases; cited from earlier work
[8] = Caco-2, Efflux ratio Caco-2 cells
[9] = Caco-2, Permeability coefficient (Papp) Caco-2 cells (A -> B)
[10] = Caco-2, Permeability coefficient (Papp) Caco-2 cells (B -> A)
[11] = MDCK-MDR1, Efflux ratio MDCK-MDR1 cells
[12] = MDCK-MDR1, Permeability coefficient (Papp) MDCK-MDR1 cells (A -> B)
[13] = MDCK-MDR1, Permeability coefficient (Papp) MDCK-MDR1 cells (B -> A)
[14] = 10 μM of the compound, 48 hours of treatment from 24 hours post fertilization

p70 ribosomal S6 kinase (p70S6K), sequence (P23443 whole entry): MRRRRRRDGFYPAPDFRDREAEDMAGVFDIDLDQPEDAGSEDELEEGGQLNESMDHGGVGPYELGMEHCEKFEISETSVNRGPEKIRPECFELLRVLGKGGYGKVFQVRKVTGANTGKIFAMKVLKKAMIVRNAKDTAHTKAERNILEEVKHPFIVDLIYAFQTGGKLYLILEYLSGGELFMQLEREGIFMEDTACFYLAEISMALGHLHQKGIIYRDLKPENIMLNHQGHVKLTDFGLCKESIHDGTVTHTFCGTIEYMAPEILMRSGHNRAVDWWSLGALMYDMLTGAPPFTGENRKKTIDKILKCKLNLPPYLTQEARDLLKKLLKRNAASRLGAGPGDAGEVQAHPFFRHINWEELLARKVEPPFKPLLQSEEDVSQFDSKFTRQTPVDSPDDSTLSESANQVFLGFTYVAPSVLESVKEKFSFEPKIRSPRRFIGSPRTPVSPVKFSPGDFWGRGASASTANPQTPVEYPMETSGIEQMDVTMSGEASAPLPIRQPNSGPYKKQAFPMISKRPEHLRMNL

SMILES: c1ccc2c(c1)Nc1ccccc1S2 [10H-phenothiazine]
- Papp A→B at 2 h (in vitro; Caco-2): 42.7 ×10⁻⁶ cm/s
- Papp B→A at 2 h (in vitro; Caco-2): 37.7 ×10⁻⁶ cm/s
- efflux ratio at 2 h (in vitro; Caco-2): 0.88
- Papp A→B at 60 min (P-gp (MDR1); MDCK-MDR1): 53.8 ×10⁻⁶ cm/s
- Papp B→A at 60 min (P-gp (MDR1); MDCK-MDR1): 38 ×10⁻⁶ cm/s
- efflux ratio at 60 min (P-gp (MDR1); MDCK-MDR1): 0.71

SMILES: CC1(CN2CCC(n3c(=O)[nH]c4ccccc43)CC2)OCc2ccccc2-n2cccc21.O=C(O)/C=C\C(=O)O (stereo not shown) [CGS-9343B]
- Endothelial defect in rps29 mutant embryos (in words) (rps29−/− embryos; zebrafish): successfully rescued the endothelial defect

SMILES: NCCNS(=O)(=O)c1cccc2c(Cl)cccc12 [Compound A-3]
- Hemoglobin levels in the zebrafish embryo (in words) (rps29−/− embryos): rescued hemoglobin levels
- Morphology of the embryo head (in words) (rps29−/− embryos; zebrafish): improved the morphology of the apoptotic embryo head
- Concentration decreasing the levels of p21 in CD34+ cells ([1]; in vitro): 1 to 50 µM
- p53 and p21 levels or nuclear localization (in words) ([1]; rps19 knockdown by siRNA): decreased p53 and p21 levels or nuclear localization

SMILES: NCCCCCCCCCCNS(=O)(=O)c1cccc2c(Cl)cccc12 [Compound A-7]
- Vascular defects in rps29 mutant embryos (in words) (rps29−/− embryos; zebrafish): rescued vascular defects

SMILES: NCCCCCCNS(=O)(=O)c1cccc2ccccc12 [Compound W-5]
- Vascular defects in rps29 mutant embryos (in words) (rps29−/− embryos; zebrafish): rescued vascular defects

SMILES: NCCCCCCNS(=O)(=O)c1cccc2c(Cl)cccc12 [Compound W-7]
- Hemoglobin levels in the zebrafish embryo (in words) (rps29−/− embryos): rescued hemoglobin levels
- Endothelial defect in rps29 mutant embryos (in words) (rps29−/− embryos; zebrafish): rescued the endothelial defect

- efflux ratio at 2 h (in vitro; [8]): > 173
- Papp A→B at 2 h (in vitro; [9]): 0.21 ×10⁻⁶ cm/s
- Papp B→A at 2 h (in vitro; [10]): 21.9 ×10⁻⁶ cm/s
- efflux ratio at 60 min (P-gp (MDR1); [11]): 0.96
- Papp A→B at 60 min (P-gp (MDR1); [12]): 31.9 ×10⁻⁶ cm/s
- Papp B→A at 60 min (P-gp (MDR1); [13]): 30.6 ×10⁻⁶ cm/s
SMILES: CC[C@H]1OC(=O)[C@H](C)[C@@H](O[C@H]2C[C@@](C)(OC)[C@@H](O)[C@H](C)O2)[C@H](C)[C@@H](O[C@@H]2O[C@H](C)C[C@H](N(C)C)[C@H]2O)[C@](C)(O)C[C@@H](C)C(=O)[C@H](C)[C@@H](O)[C@]1(C)O [Erythromycin]
- Efflux status of reference compound (in words) (Caco-2 cells [2]; Caco-2): efflux substrates

SMILES: OCCN1CCN(CCCN2c3ccccc3Sc3ccc(C(F)(F)F)cc32)CC1 [Fluphenazine, 4-[3-[2-(trifluoromethyl)phenothiazin-10-yl]lpropyl]-1-piperazineethanol]
- Endothelial defect in rps29 mutant embryos (in words) (rps29−/− embryos; zebrafish): successfully rescued the endothelial defect

- Efflux ratio MDCK-MDR1 cells (MDCK-MDR1 cells; dog, MDCK-MDR1, 60 min): 0
- efflux ratio at 2 h (in vitro; [8]): 0.68
- Papp A→B at 2 h (in vitro; [9]): 3.81 ×10⁻⁶ cm/s
- Papp B→A at 2 h (in vitro; [10]): 2.61 ×10⁻⁶ cm/s
- Papp A→B at 60 min (P-gp (MDR1); [12]): < 1.42 ×10⁻⁶ cm/s
SMILES: FC(F)(F)c1ccc2c(c1)N(CCCCN1CCCCC1)c1ccccc1S2 [MT-009, 10-(4-(piperidin-1-yl)butyl)-2-(trifluoromethyl)-10H-phenothiazine]

SMILES: OCCN(CCO)CC(O)CN1c2ccccc2Sc2ccc(C(F)(F)F)cc21 (stereo not shown) [MT-014, 2,2′-(2-hydroxy-3-(2-(trifluoromethyl)-10H-phenothiazin-10-yl)propylazanediyl)-diethanol]
- Tail and anemia phenotypes versus DMSO (in words) ([3]; 10 μM, three experiments): less severe tail and anemia phenotypes

- efflux ratio at 2 h (in vitro; [8]): 1.33
- Papp A→B at 2 h (in vitro; [9]): 12.5 ×10⁻⁶ cm/s
- Papp B→A at 2 h (in vitro; [10]): 16.6 ×10⁻⁶ cm/s
- efflux ratio at 60 min (P-gp (MDR1); [11]): > 9.83
- Papp A→B at 60 min (P-gp (MDR1); [12]): 1.05 ×10⁻⁶ cm/s
- Papp B→A at 60 min (P-gp (MDR1); [13]): 10.3 ×10⁻⁶ cm/s
SMILES: OCCOCCOCCN1CCN(CC(O)CN2c3ccccc3Sc3ccc(C(F)(F)F)cc32)CC1 (stereo not shown) [MT-016, 1-(4-(2-(2-(2-hydroxyethoxy)ethoxy)ethyl)piperazin-1-yl)-3-(2-(trifluoromethyl)-10H-phenothiazin-10-yl)propan-2-ol]
- Ratio of embryos in group MA (mutant anemic) [3, 14]: 7% and 9% and 5%
- Ratio of embryos in group MNA (mutant not anemic) [3, 14]: 7% and 8%
- Ratio of embryos in group MPA (mutant partial anemic) [3, 14]: 17% and 10% and 15%
- Ratio of embryos in group WT (wild type) [3, 14]: 69% and 74% and 72%

SMILES: CS(=O)(=O)NCC1CCN(CC(O)CN2c3ccccc3Sc3ccc(C(F)(F)F)cc32)CC1 (stereo not shown) [MT-036, N-((1-(2-hydroxy-3-(2-(trifluoromethyl)-10H-phenothiazin-10-yl)propyl)piperidin-4-yl)methyl)methanesulfonamide]
- Permeability coefficient (Papp) Caco-2 cells (A -> B) (Caco-2 cells [4]; apical to basolateral, 2-hour): 8.55 10^−6 cm/s
- Permeability coefficient (Papp) Caco-2 cells (B -> A) (Caco-2 cells [4]; basolateral to apical, 2-hour): 15.93 10^−6 cm/s
- Efflux ratio Caco-2 cells (Caco-2 cells [4]; from mean Papp B-A and A-B, 2-hour transport): 1.86
- Permeability coefficient (Papp) MDCK-MDR1 cells (A -> B) (MDCK-MDR1 cells; apical to basolateral, 60-min, 37° C.): 2.85 10^−6 cm/s
- Permeability coefficient (Papp) MDCK-MDR1 cells (B -> A) (MDCK-MDR1 cells; basolateral to apical, 60-min, 37° C.): 13.91 10^−6 cm/s
- Efflux ratio MDCK-MDR1 cells (MDCK-MDR1 cells; from mean Papp B-A and A-B, 60-min transport, 37° C.): 4.89

- Efflux ratio Caco-2 cells (Caco-2 cells [4]; human, Caco-2, 2 h): 1.11
- Efflux ratio MDCK-MDR1 cells (MDCK-MDR1 cells; dog, MDCK-MDR1, 60 min): 0.85
- efflux ratio at 2 h (in vitro; [8]): 0.89
- Papp A→B at 2 h (in vitro; [9]): 33.8 ×10⁻⁶ cm/s
- Papp B→A at 2 h (in vitro; [10]): 30.2 ×10⁻⁶ cm/s
- efflux ratio at 60 min (P-gp (MDR1); [11]): 0.81
SMILES: COCCc1ccc(OCC(O)CNC(C)C)cc1 (stereo not shown) [Metoprolol]
- Cell permeability of reference compound (in words) (Caco-2 cells [2]): high cell permeability

SMILES: OCCN1CCN(CCCN2c3ccccc3Sc3ccc(Cl)cc32)CC1 [Perphenazine, 4-[3-(2-Chloro-10H-phenothiazin-10-yl)propyl]-1-piperazineethanol]
- Potency relative to chlorpromazine [5]: approximately 5 times
- Endothelial defect in rps29 mutant embryos (in words) (rps29−/− embryos; zebrafish): successfully rescued the endothelial defect
- Oral bioavailability [6]: approximately 40%

- efflux ratio at 2 h (in vitro; [8]): 0.35
- Papp A→B at 2 h (in vitro; [9]): 1.29 ×10⁻⁶ cm/s
- Papp B→A at 2 h (in vitro; [10]): 0.46 ×10⁻⁶ cm/s
- Papp A→B at 60 min (P-gp (MDR1); [12]): < 1.28 ×10⁻⁶ cm/s
- Papp B→A at 60 min (P-gp (MDR1); [13]): < 0.59 ×10⁻⁶ cm/s
SMILES: CN1CCN(CCCN2c3ccccc3Sc3ccc(Cl)cc32)CC1 [Prochloperazine]

- Papp A→B at 60 min (P-gp (MDR1); [12]): 10.1 ×10⁻⁶ cm/s
- Papp B→A at 60 min (P-gp (MDR1); [13]): 44 ×10⁻⁶ cm/s
SMILES: C=C[C@H]1C[N@@]2CC[C@H]1C[C@@H]2[C@@H](O)c1ccnc2ccc(OC)cc12 [Quinidine]

- Papp A→B at 2 h (in vitro; [9]): 4.07 ×10⁻⁶ cm/s
- Papp B→A at 2 h (in vitro; [10]): 3.51 ×10⁻⁶ cm/s
- Papp A→B at 60 min (P-gp (MDR1); [12]): 3.35 ×10⁻⁶ cm/s
- Papp B→A at 60 min (P-gp (MDR1); [13]): 3.56 ×10⁻⁶ cm/s
SMILES: CN1CCN(CCCN2c3ccccc3Sc3ccc(S(=O)(=O)N(C)C)cc32)CC1 [Thioproperazine Dimesilate]

SMILES: CN1CCN(CCCN2c3ccccc3Sc3ccc(C(F)(F)F)cc32)CC1 [Trifluoperazine, 10-[3-(4-methylpiperazin-1-yl)propyl]-2-(trifluoromethyl)phenothiazine]
- Endothelial defect in rps29 mutant embryos (in words) (rps29−/− embryos; zebrafish): successfully rescued the endothelial defect
- Concentration restoring the percentage of CD71+ cells in an erythroid cell population ([1]; in vitro): 5 to 20 µM
- Erythroid differentiation block (in words) ([1]; shRNA against RPS19, primary CD34+ bone marrow cells from DBA patients): relieved the erythroid differentiation block
- Red blood cell number and hemoglobin levels (in words) (DBA murine model): significantly increased red blood cell number and hemoglobin levels
- p53 activity in the bone marrow (in words) (DBA murine model): reduced p53 activity in the bone marrow
- Papp A→B at 60 min (P-gp (MDR1); [12]): < 0.87 ×10⁻⁶ cm/s
- Kinase activity of p70S6K (in words) [7]: inhibited the activity
